Experimental data reported in patent US20110311661A1, “Plant Extracts and Dermatological Uses Thereof” (priority 2003, published 2011).

Key:
human skin fibroblasts = assay: Inhibition of dermal contraction, fibroblast-populated collagen I gel; format: cell-based; settings: positive control at 50 μM; collagen gels up to 7 days
Procedure: The skin model comprises human skin fibroblasts imbedded in a collagen I matrix and provides an in vitro representation of dermal contraction resulting from tractional forces generated by fibroblasts.
The ability of exemplary plant extracts to inhibit dermal contraction was evaluated on human skin fibroblasts (Cascade Biologics, Portland, Oreg.). The cells were imbedded in a collagen I matrix to create a derm-like environment. Fibroblasts were grown in complete M106 to 80% confluence. Free-floating fibroblast-populated collagen gels were prepared in 24-well plates. […] The mix was kept on ice until distribution. The derm-like gels were allowed to polymerize for 1 hour at 37° C. in a humidified 5% CO2 atmosphere. After incubation, the gels were detached from the wells. […] FBS at a final concentration of 10% was added to each well. The plate was incubated for a maximum of 7 days at 37° C. in a humidified 5% CO2 atmosphere. All assays were performed in duplicate. Contraction was measured beginning at day 3. Contracting gels were digitally photographed and the gel areas were calculated using ImagePro software.

human skin keratinocytes = assay: IL-8 release ELISA; format: cell-based; settings: positive control at 2.5 μM; 48 hours
Procedure: The amount of Interleukin-8 (IL-8) released after exposure of keratinocytes to a plant extract, as described below, can be used to quantify any possible irritation reaction to the extract.
IL-8 release was evaluated in human skin keratinocytes (Cascade Biologics, Portland, Oreg.) using the Quantikine hIL-8 ELISA kit (R&D Systems, Minneapolis, Minn.). Keratinocytes were first grown in a 96-well plate using the complete M154 (M154+HKGS from Cascade Biologics). This media was also used as control. Phorbol 12-myristate 13-acetate (PMA) (Sigma-Aldrich Canada, Oakville, Ontario) at a concentration of 2.5 μM was used as a positive control. All tested plant extracts and the controls were diluted in complete M154 at a non-cytotoxic concentration (i.e. the concentration that provided 100% viability of keratinocytes as shown in Table 10). Cells were seeded into 96-well plates at a concentration of 8×10^3 cells/well in complete M154 media. Plates were incubated for 48 hours at 37° C. in a humidified 5% CO2 atmosphere. After incubation, the medium was removed and 200 μl of sample was added to the wells (all in duplicate). […]
After incubation, each well was washed four times with wash buffer. […] The plate was then gently mixed and the absorbance read at 450 nm on the Spectrafluor Plus plate reader (Tecan). The reading was taken within 15 minutes following addition of the stop solution. […]

Compound | inhibition of contraction (human skin fibroblasts) | IL-8 release (human skin keratinocytes)
CNC(=O)[C@H](Cc1c[nH]c2ccccc12)NC(=O)[C@@H](CC(=O)NO)CC(C)C [GM6001] | limited, but not complete, inhibition of contraction | 
CCCCCCCCCCCCCC(=O)O[C@@H]1[C@@H](C)[C@@]2(O)[C@@H](C=C(CO)C[C@]3(O)C(=O)C(C)=C[C@@H]23)[C@@H]2C(C)(C)[C@]12OC(C)=O [PMA, Phorbol 12-myristate 13-acetate] |  | highest level of IL-8 release
